In patent US20200361895A1, “NOVEL SULFONAMIDE CARBOXAMIDE COMPOUNDS” (Inflazome Limited, priority 2017, published 2020):
Structures can show the parent of a compound that is named as a salt.

Biological target: NLRP3 (Homo sapiens, UniProt Q96P20)
Experiment: THP-1 cells pyroptosis assay (LPS + nigericin, resazurin readout; THP IC50)
Type: cell-based
Set-up: Seed THP-1 cells (25,000 cells/well) containing 1.0 μg/ml LPS in 40 μl of RPMI medium; host or cells: THP-1 cells
Procedure: THP-1 cells (ATCC #TIB-202) were grown in RPMI containing L-glutamine (Gibco #11835) supplemented with 1 mM sodium pyruvate (Sigma #S8636) and penicillin (100 units/ml)/streptomycin (0.1 mg/ml) (Sigma #P4333) in 10% Fetal Bovine Serum (FBS) (Sigma #F0804). The cells were routinely passaged and grown to confluency (˜10^6 cells/ml). On the day of the experiment, THP-1 cells were harvested and resuspended into RPMI medium (without FBS). The cells were then counted and viability (>90%) checked by Trypan blue (Sigma #T8154). Appropriate dilutions were made to give a concentration of 625,000 cells/ml. To this diluted cell solution was added LPS (Sigma #L4524) to give a 1 μg/ml Final Assay Concentration (FAC). 40 μl of the final preparation was aliquoted into each well of a 96-well plate. The plate thus prepared was used for compound screening.
The following method step-by-step assay was followed for compound screening. • 1. Seed THP-1 cells (25,000 cells/well) containing 1.0 μg/ml LPS in 40 μl of RPMI medium (without FBS) in 96-well, black walled, clear bottom cell culture plates coated with poly-D-lysine (VWR #734-0317) • 2. Add 5 μcompound (8 points half-log dilution, with 10 μM top dose) or vehicle (DMSO 0.1% FAC) to the appropriate wells • 3. Incubate for 3 hrs at 37° C. and 5% CO2 • 4. Add 5 μnigericin (Sigma #N7143) (FAC 5 μM) to all wells • 5. Incubate for 1 hr at 37° C. and 5% CO2 • 6. At the end of the incubation period, spin plates at 300×g for 3 mins and remove supernatant • 7. Then add 50 μl of resazurin (Sigma #R7017) (FAC 100 μM resazurin in RPMI medium without FBS) and incubate plates for a further 1-2 hrs at 37° C. and 5% CO2 • 8. Plates were read in an Envision reader at Ex 560 nm and Em 590 nm • 9. IC50 data is fitted to a non-linear regression equation (log inhibitor vs response-variable slope 4-parameters)

Sequence of NLRP3 (Q96P20 whole entry): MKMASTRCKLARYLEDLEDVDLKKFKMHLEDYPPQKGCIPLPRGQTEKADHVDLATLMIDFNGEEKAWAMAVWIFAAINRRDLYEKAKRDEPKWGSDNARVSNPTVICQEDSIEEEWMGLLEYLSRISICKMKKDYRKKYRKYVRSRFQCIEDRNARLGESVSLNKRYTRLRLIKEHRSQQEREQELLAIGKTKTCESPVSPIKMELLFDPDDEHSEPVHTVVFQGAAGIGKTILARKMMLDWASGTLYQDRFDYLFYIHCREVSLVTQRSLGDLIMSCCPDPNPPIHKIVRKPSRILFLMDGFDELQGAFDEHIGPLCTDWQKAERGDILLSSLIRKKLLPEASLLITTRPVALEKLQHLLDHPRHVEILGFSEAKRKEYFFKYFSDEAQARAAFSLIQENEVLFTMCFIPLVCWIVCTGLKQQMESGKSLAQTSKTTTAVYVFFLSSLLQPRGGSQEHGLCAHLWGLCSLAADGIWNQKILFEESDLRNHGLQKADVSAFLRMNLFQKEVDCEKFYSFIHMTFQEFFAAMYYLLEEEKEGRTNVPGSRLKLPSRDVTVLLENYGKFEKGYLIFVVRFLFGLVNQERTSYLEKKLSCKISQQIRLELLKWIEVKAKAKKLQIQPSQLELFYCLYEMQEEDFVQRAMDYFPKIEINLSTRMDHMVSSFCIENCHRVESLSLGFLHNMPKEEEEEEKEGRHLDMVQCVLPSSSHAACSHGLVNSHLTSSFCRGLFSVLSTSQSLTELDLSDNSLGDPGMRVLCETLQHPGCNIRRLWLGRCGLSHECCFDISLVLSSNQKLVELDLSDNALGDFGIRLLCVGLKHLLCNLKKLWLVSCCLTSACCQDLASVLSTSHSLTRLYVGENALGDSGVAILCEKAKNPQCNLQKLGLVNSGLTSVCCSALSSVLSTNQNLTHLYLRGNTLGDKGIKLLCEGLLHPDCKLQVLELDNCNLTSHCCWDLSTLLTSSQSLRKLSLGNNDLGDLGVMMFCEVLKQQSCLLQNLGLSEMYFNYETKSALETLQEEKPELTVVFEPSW

SMILES	IC50
CC(C)c1cc(F)cc(-c2ccnc(C#N)c2)c1NC(=O)NS(=O)(=O)c1cncc(N(C)C)n1 [Example 102, N-((2-(2-Cyanopyridin-4-yl)-4-fluoro-6-isopropylphenyl)carbamoyl)-6-(dimethylamino)pyrazine-2-sulfonamide]	≤ 0.5 µM
COc1cc(-c2cc(F)cc(C(C)C)c2NC(=O)NS(=O)(=O)c2cnc(N(C)C)cn2)ccn1 [Example 107, 5-(Dimethylamino)-N-((4-fluoro-2-isopropyl-6-(2-methoxypyridin-4-yl)phenyl)carbamoyl)pyrazine-2-sulfonamide]	≤ 0.5 µM
CC(C)c1cc(F)cc(-c2ccnc(C#N)c2)c1NC(=O)NS(=O)(=O)c1nccnc1C(F)F [Example 110, N-((2-(2-Cyanopyridin-4-yl)-4-fluoro-6-isopropylphenyl)carbamoyl)-3-(difluoromethyl)pyrazine-2-sulfonamide]	≤ 10 µM
COc1cc(-c2cc(F)cc(C(C)C)c2NC(=O)NS(=O)(=O)c2nccnc2C(F)F)ccn1 [Example 111, 3-(Difluoromethyl)-N-((4-fluoro-2-isopropyl-6-(2-methoxypyridin-4-yl)phenyl)carbamoyl)pyrazine-2-sulfonamide]	≤ 5 µM
O=C(Nc1c(-c2ccncc2)cc(F)c2c1CCC2)NS(=O)(=O)c1nccnc1C(F)F [Example 113, 3-(Difluoromethyl)-N-((7-fluoro-5-(pyridin-4-yl)-2,3-dihydro-1H-inden-4-yl)carbamoyl)pyrazine-2-sulfonamide]	≤ 5 µM
COc1cc(-c2cc(F)cc(C(C)C)c2NC(=O)NS(=O)(=O)c2nc(C)cc(C)n2)ccn1 [Example 115, N-((4-Fluoro-2-isopropyl-6-(2-methoxypyridin-4-yl)phenyl)carbamoyl)-4,6-dimethylpyrimidine-2-sulfonamide]	≤ 0.5 µM
CC(C)c1cc(F)cc(-c2ccnc(C#N)c2)c1NC(=O)NS(=O)(=O)Cc1ccccc1 [Example 127, N-((2-(2-Cyanopyridin-4-yl)-4-fluoro-6-isopropylphenyl)carbamoyl)-1-phenylmethanesulfonamide]	≤ 10 µM
O=C(Nc1c(-c2ccncc2)cc(F)c2c1CCC2)NS(=O)(=O)Cc1ccccc1 [Example 130, N-((7-Fluoro-5-(pyridin-4-yl)-2,3-dihydro-1H-inden-4-yl)carbamoyl)-1-phenylmethanesulfonamide]	≤ 5 µM
CC(C)CS(=O)(=O)NC(=O)Nc1c(-c2ccnc(C#N)c2)cc(F)cc1C(C)C [Example 131, N-((2-(2-Cyanopyridin-4-yl)-4-fluoro-6-isopropylphenyl)carbamoyl)-2-methylpropane-1-sulfonamide]	≤ 10 µM
CC(C)c1cc(F)cc(-c2ccnc(C#N)c2)c1NC(=O)NS(=O)(=O)CCc1ccccc1 [Example 135, N-((2-(2-Cyanopyridin-4-yl)-4-fluoro-6-isopropylphenyl)carbamoyl)-2-phenylethanesulfonamide]	≤ 1 µM
COc1cc(-c2cc(F)cc(C(C)C)c2NC(=O)NS(=O)(=O)CCc2ccccc2)ccn1 [Example 136, N-((4-Fluoro-2-isopropyl-6-(2-methoxypyridin-4-yl)phenyl)carbamoyl)-2-phenylethanesulfonamide]	≤ 0.5 µM
CC(C)c1cc(F)cc(-c2ccnc(C#N)c2)c1NC(=O)NS(=O)(=O)C(C)c1ccccc1 (stereo not drawn) [Example 139, N-((2-(2-Cyanopyridin-4-yl)-4-fluoro-6-isopropylphenyl)carbamoyl)-1-phenylethanesulfonamide]	≤ 5 µM
COc1cc(-c2cc(F)cc(C(C)C)c2NC(=O)NS(=O)(=O)C(C)c2ccccc2)ccn1 (stereo not drawn) [Example 140, N-((4-Fluoro-2-isopropyl-6-(2-methoxypyridin-4-yl)phenyl)carbamoyl)-1-phenylethanesulfonamide]	≤ 5 µM
CC(c1ccccc1)S(=O)(=O)NC(=O)Nc1c(-c2ccncc2)cc(F)c2c1CCC2 (stereo not drawn) [Example 142, N-((7-Fluoro-5-(pyridin-4-yl)-2,3-dihydro-1H-inden-4-yl)carbamoyl)-1-phenylethanesulfonamide]	≤ 5 µM
COc1cc(-c2cc3c(cc2NC(=O)NS(=O)(=O)c2ccn(C4CC4)n2)CCC3)ccn1 [Example 144, 1-Cyclopropyl-N-((6-(2-methoxypyridin-4-yl)-2,3-dihydro-1H-inden-5-yl)carbamoyl)-1H-pyrazole-3-sulfonamide]	≤ 5 µM
CCN(CC)CCCS(=O)(=O)NC(=O)Nc1c(-c2ccnc(C#N)c2)cc(F)cc1C(C)C [Example 146, N-((2-(2-Cyanopyridin-4-yl)-4-fluoro-6-isopropylphenyl)carbamoyl)-3-(diethylamino)propane-1-sulfonamide]	≤ 1 µM
CCN(CC)CCCS(=O)(=O)NC(=O)Nc1c(-c2ccnc(OC)c2)cc(F)cc1C(C)C [Example 147, 3-(Diethylamino)-N-((4-fluoro-2-isopropyl-6-(2-methoxypyridin-4-yl)phenyl)carbamoyl)propane-1-sulfonamide]	≤ 0.5 µM
CCN(CCCS(=O)(=O)NC(=O)Nc1c(-c2ccnc(OC)c2)cc(F)cc1C(C)C)Cc1ccccc1 [Example 150, 3-(Benzyl(ethyl)amino)-N-((4-fluoro-2-isopropyl-6-(2-methoxypyridin-4-yl)phenyl)carbamoyl)propane-1-sulfonamide]	≤ 0.5 µM
CCN(CCCS(=O)(=O)NC(=O)Nc1c(-c2ccnc(C#N)c2)cc(F)cc1C(C)C)Cc1ccccc1 [Example 151, 3-(Benzyl(ethyl)amino)-N-((2-(2-cyanopyridin-4-yl)-4-fluoro-6-isopropylphenyl)carbamoyl)propane-1-sulfonamide]	≤ 5 µM

The remaining lines, values ahead:

IC50	SMILES
≤ 5 µM	CCN1CCC(S(=O)(=O)NC(=O)Nc2c(-c3ccnc(OC)c3)cc(F)cc2C(C)C)CC1 [Example 100, 1-Ethyl-N-((4-fluoro-2-isopropyl-6-(2-methoxypyridin-4-yl)phenyl)carbamoyl)piperidine-4-sulfonamide, potassium salt]
≤ 1 µM	COc1cc(-c2ccc3c(c2NC(=O)NS(=O)(=O)c2nccnc2C(F)F)CCC3)ccn1 [Example 112, 3-(Difluoromethyl)-N-((5-(2-methoxypyridin-4-yl)-2,3-dihydro-1H-inden-4-yl)carbamoyl)pyrazine-2-sulfonamide]
≤ 1 µM	COc1cc(-c2cc(F)cc(C(C)C)c2NC(=O)NS(=O)(=O)Cc2ccccc2)ccn1 [Example 128, N-((4-Fluoro-2-isopropyl-6-(2-methoxypyridin-4-yl)phenyl)carbamoyl)-1-phenylmethanesulfonamide]
≤ 5 µM	COc1cc(-c2ccc3c(c2NC(=O)NS(=O)(=O)Cc2ccccc2)CCC3)ccn1 [Example 129, N-((5-(2-Methoxypyridin-4-yl)-2,3-dihydro-1H-inden-4-yl)carbamoyl)-1-phenylmethanesulfonamide]
≤ 1 µM	COc1cc(-c2cc(F)cc(C(C)C)c2NC(=O)NS(=O)(=O)CC(C)C)ccn1 [Example 132, N-((4-Fluoro-2-isopropyl-6-(2-methoxypyridin-4-yl)phenyl)carbamoyl)-2-methylpropane-1-sulfonamide]
≤ 0.5 µM	COc1cc(-c2ccc3c(c2NC(=O)NS(=O)(=O)CC(C)C)CCC3)ccn1 [Example 133, N-((5-(2-Methoxypyridin-4-yl)-2,3-dihydro-1H-inden-4-yl)carbamoyl)-2-methylpropane-1-sulfonamide]
≤ 1 µM	CC(C)CS(=O)(=O)NC(=O)Nc1c(-c2ccncc2)cc(F)c2c1CCC2 [Example 134, N-((7-Fluoro-5-(pyridin-4-yl)-2,3-dihydro-1H-inden-4-yl)carbamoyl)-2-methylpropane-1-sulfonamide]
≤ 0.5 µM	COc1cc(-c2ccc3c(c2NC(=O)NS(=O)(=O)CCc2ccccc2)CCC3)ccn1 [Example 137, N-((5-(2-Methoxypyridin-4-yl)-2,3-dihydro-1H-inden-4-yl)carbamoyl)-2-phenylethanesulfonamide]
≤ 1 µM	COc1cc(-c2ccc3c(c2NC(=O)NS(=O)(=O)C(C)c2ccccc2)CCC3)ccn1 (stereo not drawn) [Example 141, N-((5-(2-Methoxypyridin-4-yl)-2,3-dihydro-1H-inden-4-yl)carbamoyl)-1-phenylethanesulfonamide]
≤ 1 µM	COc1cc(-c2ccc3c(c2NC(=O)NS(C)(=O)=O)CCC3)ccn1 [Example 143, N-((5-(2-Methoxypyridin-4-yl)-2,3-dihydro-1H-inden-4-yl)carbamoyl)methanesulfonamide]
≤ 0.5 µM	CCN(CC)CCCS(=O)(=O)NC(=O)Nc1c(-c2ccnc(OC)c2)ccc2c1CCC2 [Example 148, 3-(Diethylamino)-N-((5-(2-methoxypyridin-4-yl)-2,3-dihydro-1H-inden-4-yl)carbamoyl)propane-1-sulfonamide]
